Reference: patent US20230035057A1, “METHOD OF TREATMENT OF SLEEP APNEA” (PRIMAVERA BIOSCIENCES, INC., priority 2021, published 2023)

Tested on: sleep apnea patient
Experiment: Oxygen saturation (SpO2) monitoring during sleep with Wellure's O2Ring in a sleep apnea patient
Type: in vivo
Text: FIG. 1 is a diagram showing sleep apnea patient's oxygen saturation levels (SpO2). Oxygen saturation levels (SpO2) in the blood during sleep were monitored using Wellure's O2Ring.
(§1) Oxygen saturation levels (SpO2) in the blood during sleep were monitored using Wellure's O2Ring.
as §1

With CN[C@@H](C)[C@H](O)c1ccccc1 [ephedrine] the “breathing problems observed in FIG. 1” value (FIG. 2, 25 mg ephedrine one hour before bed plus Avinol PM, in the first three hours, came back afterwards) was “greatly reduced”, the “sleep apnea patient's oxygen saturation levels (SpO2)” value (FIG. 2, 25 mg of ephedrine one hour before going to bed along with sleeping pill Avinol PM just before going to bed) was “improved” and the “sleep apnea patient's oxygen saturation levels (SpO2)” value (FIG. 3, 25 mg ephedrine one hour before bed plus one tablet Avinol PM just before bed, another 25 mg ephedrine three hours after going to bed) was “improved”. For the same compound, the “breathing problems caused by sleep apnea” value (general statement, dose not given) was “reduces”.
